The source of these data is patent publication US4357324A, “Prodrug derivatives of 9β-D-arabinofuranosyl-2-fluoroadenine” (The United States of America as represented by the …, priority 1981, dated 1982).

One data set relates to L1210 Leukemia. The experiment in a line: Activity against L1210 leukemia, 10^5 L1210 cell IP (Table IV). It counts as in vivo, mice. The following applies: for lifespan and cures of mice implanted with leukemia L1210 cells: FIGS. 1 and 3; for Lifespan: untreated control 8. The protocol: (§1) These higher levels of the active agent that last for longer periods of time allow effective treatment with these drugs given once a day for nine days (see FIGS. 1, 2 and 3).
(§2) It has been noted that the antitumor activity of 9-β-D-arabinofuranosyl adenine (ara-A) is enhanced by the incorporation of a fluorine atom at the 2-carbon. […] To overcome this difficulty two water-soluble derivatives, the 5'-formate and the 5'-phosphate, were prepared.

A short description of data set [1]: Conversion to the parent drug in vivo (statement). Conditions: in words.
A short description of data set [2]: Water solubility (statement). It counts as physicochemical. The following applies: in words.
The next data set has as its system L1210 cells. The experiment in a line: Nanomoles of triphosphate per gm L1210 cells after treatment (Table I). It counts as in vivo, mice. Conditions: for levels of F-ara-A triphosphate in leukemic cells versus F-ara-A itself: mouse, in vivo. As to the method:
as §1, §2

The next data set concerns L1210/0 Leukemia. The experiment in a line: Activity against L1210/0 leukemia, 10^5 IP (Tables II and III). It counts as in vivo, mice. The protocol:
as §1
Treatment: IP; QD 1-9 Days*
*2'dCF Given 30 Minutes Before araA
as §2

For data set [3] the following is noted: in words; second component of the two-drug combination; cited from earlier work.
Where [4] appears, read: Table IV, 219 mg/kg/day, qd 1-9.
Where [5] appears, read: Table II, 150 mg/kg/dose, IP, QD 1-9 days.
[6] abbreviates: mice implanted with leukemia L1210 cells.
[7] abbreviates: Table IV, 375 mg/kg/day, q3h, days 1,5,9.

Molecules are shown by their SMILES.

Regarding `Nc1nc(F)nc2c1ncn2[C@@H]1O[C@H](COP(=O)(O)O)[C@@H](O)[C@@H]1O` [F-ara-AMP, 9-β-D-arabinofuranosyl-2-fluoroadenine 5'-phosphate], the “lifespan and cures of mice implanted with leukemia L1210 cells” value with L1210 Leukemia is “good increases in lifespan and some cures”. Further, in the data set on L1210 Leukemia (setting [4]), the “% ILS” value was 125%, the Cures is reported as 3/10 and the Lifespan turned out to be 18 days. For the same compound, in data set [1], the “conversion to the parent drug in vivo” value was “converted to the parent drug in vivo”. In data set [2], the solubility entry is given as “water-soluble”. Further, the “levels of F-ara-A triphosphate in leukemic cells versus F-ara-A itself” value in the data set on L1210 cells is given as “higher levels”.
For the compound `Nc1nc(F)nc2c1ncn2[C@@H]1O[C@H](COC=O)[C@@H](O)[C@@H]1O` [F-ara-A5'-formate, 9-(5-O-formyl-β-D-arabinofuranosyl)-2-fluoroadenine], the “lifespan and cures of mice implanted with leukemia L1210 cells” value in the data set with L1210 Leukemia is “good increases in lifespan and some cures”. Besides, in the data set on L1210/0 Leukemia (setting [5]), the “% ILS” value amounted to 177% and the Cures was 3/10. Further, the “Median Lifespan” value in the data set on L1210/0 Leukemia (Table II, 150 mg/kg/dose, IP, QD 1-9 days, untreated control 9) was 25 days. For the same compound, in the data set on L1210/0 Leukemia (setting [6]), the Cures entry is given as “three” and the increase in lifespan came out at 177%. The “conversion to the parent drug in vivo” value in data set [1] is reported as “converted to the parent drug in vivo”. Moreover, the solubility result in data set [2] is on record as “water-soluble”. Besides, the “levels of F-ara-A triphosphate in leukemic cells versus F-ara-A itself” value in the data set with L1210 cells is recorded as “higher levels”.
As to `Nc1ncnc2c1ncn2[C@@H]1O[C@H](COP(=O)(O)O)[C@@H](O)[C@@H]1O` [Ara-AMP, 9-β-D-arabinofuranosyl adenine 5'-phosphate, reference compound], in the data set with L1210 Leukemia (setting [7]), the “% ILS” value is on record as 62% and the Lifespan was found to be 13 days.
`OC[C@H]1O[C@@H](n2cnc3c2NC=NC[C@H]3O)C[C@@H]1O` [2'-dCF]: the toxicity entry in data set [3] is given as “clear but not completely defined toxicity”.
Regarding `Nc1ncnc2c1ncn2[C@@H]1O[C@H](CO)[C@@H](O)[C@@H]1O` [ara-A, 9-β-D-arabinofuranosyl adenine, reference compound], in the data set with L1210 Leukemia (optimal schedule, every 3 hours for 24 hours), the effectiveness result is on record as “not very effective”.
Take `Nc1nc(F)nc2c1ncn2[C@@H]1O[C@H](CO)[C@@H](O)[C@@H]1O` [F-ara-A, 9-β-D-arabinofuranosyl-2-fluoroadenine, reference compound]: in data set [2], the solubility entry is listed as “very insoluble”. Also, the “levels of the triphosphate in L1210 versus ara-A+2'dCF” value with L1210 cells (near equimolar doses) is on record as “higher levels”.
